What is called MIC is the least concentration at which growth counts as inhibited.

In brackets after ≈: the same amount, converted by molar mass. Read-outs that look alike come from different tables or passages of the source.

MIC data for 16 molecules are collected here from patent publication US4477443A, “Tylosin derivatives, their preparation and pharmaceutical compositions containing them” (Zaidan Hojin Biselbutsu Kagaku Kenkyu Kai (Microbial …, priority 1981, dated 1984).

Holding throughout (experiment): antimicrobial activity (MIC), Table II
Holding throughout (assay type): cell-based

In one experiment the test system is B. subtilis ATCC 6633. Particulars: Bacillus subtilis, ATCC6633; B. subtilis ATCC 6633; read-out: MIC.
For the next experiment, the system named is B. cereus. The settings on record: Bacillus cereus; B. cereus; read-out: MIC.
The subject of a further experiment is Staph. aureus ATCC 6538P. Particulars: Staphylococcus aureus, ATCC6538P.
For a further experiment, the system named is Staph. aureus KC-11. The settings on record: Staphylococcus aureus, KC11.
A further experiment relates to Staph. aureus 226. Particulars: Staphylococcus aureus.
Experiment [1] relates to Staph. epidermidis IID 886. Particulars: Staphylococcus epidermidis, IID886.
Experiment [2] relates to Staph. epidermidis IID 866. The settings on record: Staphylococcus epidermidis, IID866.
Setting [3] is: Staph. aureus ATCC 6538P, read-out: MIC.
Where [4] appears, read: Staph. aureus KC-11, read-out: MIC.
[5] abbreviates: Staph. aureus 226, read-out: MIC.

Take `CCC1OC(=O)CC(O)C(C)C(OC2OC(C)CC(N(C)C)C2O)C(CC=O)CC(C)C(=O)C=CC(C)=CC1CN(C)CCO` (centres unmarked) [Example 66, 23,4'-dideoxy-23-N-(2-hydroxyethyl)methylaminomycaminosyl tylonolide]: the MIC in the experiment on B. subtilis ATCC 6633 was 1.56 µg/mL (≈ 2.44 µM); in the experiment with B. cereus it was not above 0.2 µg/mL; with Staph. aureus ATCC 6538P (setting [3]), 0.78 µg/mL (≈ 1.22 µM); in the experiment on Staph. aureus KC-11 (setting [4]), 1.56 µg/mL (≈ 2.44 µM); with Staph. aureus 226 (setting [5]) it was 1.56 µg/mL (≈ 2.44 µM); in experiment [1], 0.78 µg/mL (≈ 1.22 µM).
In the case of `CCC1OC(=O)CC(O)C(C)C(OC2OC(C)CC(N(C)C)C2O)C(CC=O)CC(C)C(=O)C=CC(C)=CC1CN(CC)CC(F)(F)F` (centres unmarked) [Example 74, 23,4'-Dideoxy-23-N-(2,2,2-trifluoroethyl)ethylaminomycaminosyl tylonolide], the MIC (in the experiment on B. subtilis ATCC 6633; in the experiment on B. cereus; with Staph. aureus ATCC 6538P (setting [3]); in the experiment on Staph. aureus KC-11 (setting [4]); with Staph. aureus 226 (setting [5]); in experiment [1]) was 0.78 µg/mL (≈ 1.13 µM) throughout.
On to `CCC1OC(=O)CC(O)C(C)C(OC2OC(C)CC(N(C)C)C2O)C(CC=O)CC(C)C(=O)C=CC2(C)OC2C1CN(C)C` (centres unmarked) [Example 61, 23,4'-dideoxy-23-dimethylamino-12,13-epoxymycaminosyl tylonolide], for which the minimal inhibitory concentration (MIC) with B. subtilis ATCC 6633 was 0.78 µg/mL (≈ 1.25 µM); with B. cereus, not above 0.2 µg/mL; with Staph. aureus ATCC 6538P (setting [3]), 0.78 µg/mL (≈ 1.25 µM); with Staph. aureus KC-11 (setting [4]) it was 0.78 µg/mL (≈ 1.25 µM); with Staph. aureus 226 (setting [5]), 1.56 µg/mL (≈ 2.5 µM); in experiment [1] it was 0.78 µg/mL (≈ 1.25 µM).
For the molecule `CCC1OC(=O)CC(O)C(C)C(OC2OC(C)CC(N(C)C)C2O)C(CC=O)CC(C)C(=O)C=CC(C)=CC1COC(=O)CN1CCCC1` (centres unmarked) [Example 52, 23-O-pyrrolidinoacetyl-4'-deoxymycaminosyl tylonolide], the MIC in the experiment on B. subtilis ATCC 6633 is 1.56 µg/mL (≈ 2.25 µM); in the experiment with B. cereus, 1.56 µg/mL (≈ 2.25 µM); in the experiment on Staph. aureus ATCC 6538P (setting [3]) it was 0.78 µg/mL (≈ 1.13 µM); in the experiment with Staph. aureus KC-11 (setting [4]), 0.78 µg/mL (≈ 1.13 µM); in the experiment on Staph. aureus 226 (setting [5]), 0.78 µg/mL (≈ 1.13 µM); in experiment [2] it was 0.78 µg/mL (≈ 1.13 µM).
As for `CCC1OC(=O)CC(O)C(C)C(OC2OC(C)CC(N(C)C)C2O)C(CC=O)CC(C)C(=O)C=CC(C)=CC1CN(CC)CCO` (centres unmarked) [Example 67, 23,4'-dideoxy-23-N-ethyl(2-hydroxyethyl)aminomycaminosyl tylonolide], the MIC in the experiment with B. subtilis ATCC 6633 was found to be 0.78 µg/mL (≈ 1.19 µM); in the experiment on B. cereus, 0.39 µg/mL (≈ 0.597 µM); in the experiment with Staph. aureus ATCC 6538P (setting [3]), 0.78 µg/mL (≈ 1.19 µM); with Staph. aureus KC-11 (setting [4]), 0.78 µg/mL (≈ 1.19 µM); with Staph. aureus 226 (setting [5]) it was 0.78 µg/mL (≈ 1.19 µM); in experiment [1], 0.78 µg/mL (≈ 1.19 µM).
For the molecule `CCC1OC(=O)CC(O)C(C)C(OC2OC(C)CC(N(C)C)C2O)C(CC=O)CC(C)C(=O)C=CC(C)=CC1COC(=O)CSc1ccccn1` (centres unmarked) [Example 53, 23-O-(pyridine-2-thioyl)acetyl-4'-deoxymycaminosyl tylonolide], the MIC was 0.39 µg/mL (≈ 0.532 µM) in the experiment with B. subtilis ATCC 6633; not above 0.2 µg/mL in the experiment with B. cereus; 0.39 µg/mL (≈ 0.532 µM) with Staph. aureus ATCC 6538P; 0.39 µg/mL (≈ 0.532 µM) against Staph. aureus KC-11; 0.39 µg/mL (≈ 0.532 µM) with Staph. aureus 226 (226); not above 0.2 µg/mL in experiment [1].
`CCC1OC(=O)CC(O)C(C)C(OC2OC(C)CC(N(C)C)C2O)C(CC=O)CC(C)C(=O)C=CC(C)=CC1CNCC(C)(C)C` (centres unmarked) [Example 23, 23,4'-dideoxy-23-neopentylaminocaminosyl tylonolide]: the MIC in the experiment on B. subtilis ATCC 6633 was 1.56 µg/mL (≈ 2.4 µM); with B. cereus, 0.78 µg/mL (≈ 1.2 µM); in the experiment on Staph. aureus ATCC 6538P (setting [3]) it was 0.78 µg/mL (≈ 1.2 µM); with Staph. aureus KC-11 (setting [4]), 0.78 µg/mL (≈ 1.2 µM); in the experiment with Staph. aureus 226 (setting [5]), 0.78 µg/mL (≈ 1.2 µM); in experiment [2] it was 0.78 µg/mL (≈ 1.2 µM).
Turning to `CCC1OC(=O)CC(O)C(C)C(OC2OC(C)C(O)C(N(C)C)C2O)C(CC=O)CC(C)C(=O)C=CC(C)=CC1CN(CC)C(=O)c1ccco1` (centres unmarked) [Example 43, 23-deoxy-23-N-(2-furoyl)ethylaminomycaminosyl tylonolide], the MIC with B. subtilis ATCC 6633 worked out at 0.78 µg/mL (≈ 1.09 µM); with B. cereus, 0.39 µg/mL (≈ 0.543 µM); in the experiment on Staph. aureus ATCC 6538P (setting [3]), 0.78 µg/mL (≈ 1.09 µM); with Staph. aureus KC-11 (setting [4]) it was 0.78 µg/mL (≈ 1.09 µM); with Staph. aureus 226 (setting [5]), 0.78 µg/mL (≈ 1.09 µM); in experiment [2], 0.78 µg/mL (≈ 1.09 µM).
For `CCC1OC(=O)CC(O)C(C)C(OC2OC(C)C(O)C(N(C)C)C2O)C(CC=O)CC(C)C(=O)C=CC(C)=CC1CN1CCCC(C)C1` (centres unmarked) [Example 88, 23-deoxy-23-(3-methylpiperidino)mycaminosyl tylonolide], the MIC is 0.78 µg/mL (≈ 1.15 µM) with B. subtilis ATCC 6633; 0.78 µg/mL (≈ 1.15 µM) with Staph. aureus ATCC 6538P (setting [3]); 0.78 µg/mL (≈ 1.15 µM) in the experiment on Staph. aureus KC-11 (setting [4]); 0.78 µg/mL (≈ 1.15 µM) in the experiment on Staph. aureus 226 (setting [5]); 0.39 µg/mL (≈ 0.574 µM) in experiment [1].
Regarding `CCC1OC(=O)CC(O)C(C)C(OC2OC(C)CC(N(C)C)C2O)C(CC=O)CC(C)C(=O)C=CC(C)=CC1CN(CC)C(=O)c1ccco1` (centres unmarked) [Example 45, 23,4'-dideoxy-23-N-(2-furoyl)ethylaminomycaminosyl tylonolide], the minimum inhibitory concentration (MIC) with B. subtilis ATCC 6633 was found to be 0.39 µg/mL (≈ 0.555 µM); in the experiment with B. cereus, 0.39 µg/mL (≈ 0.555 µM); in the experiment on Staph. aureus ATCC 6538P (setting [3]), 0.78 µg/mL (≈ 1.11 µM); with Staph. aureus KC-11 (setting [4]), 0.78 µg/mL (≈ 1.11 µM); with Staph. aureus 226 (setting [5]), 0.78 µg/mL (≈ 1.11 µM); in experiment [2], 0.39 µg/mL (≈ 0.555 µM).
Regarding `CCC1OC(=O)CC(O)C(C)C(OC2OC(C)C(O)C(N(C)C)C2O)C(CC=O)CC(C)C(=O)C=CC(C)=CC1CN1CCCCCC1` (centres unmarked) [Example 24, 23-deoxy-23-hexamethyleneiminomycaminosyl tylonolide], the MIC with B. subtilis ATCC 6633 is 0.78 µg/mL (≈ 1.15 µM); with B. cereus, 0.39 µg/mL (≈ 0.574 µM); against Staph. aureus ATCC 6538P, 0.39 µg/mL (≈ 0.574 µM); in the experiment with Staph. aureus KC-11 (setting [4]) it was 0.78 µg/mL (≈ 1.15 µM); against Staph. aureus 226 (226), not above 0.2 µg/mL; in experiment [2], 0.39 µg/mL (≈ 0.574 µM).
As for `CCC1OC(=O)CC(O)C(C)C(OC2OC(C)CC(N(C)C)C2O)C(CC=O)CC(C)C(=O)C=CC(C)=CC1CNC(C)(C)C` (centres unmarked) [Example 22, 23,4'-dideoxy-23-(t-butylamino)mycaminosyl tylonolide], the MIC in the experiment on B. subtilis ATCC 6633 was found to be 0.78 µg/mL (≈ 1.22 µM); with B. cereus, 0.39 µg/mL (≈ 0.612 µM); in the experiment with Staph. aureus ATCC 6538P (setting [3]), 0.78 µg/mL (≈ 1.22 µM); with Staph. aureus KC-11 (setting [4]), 0.78 µg/mL (≈ 1.22 µM); with Staph. aureus 226 (setting [5]), 0.78 µg/mL (≈ 1.22 µM); in experiment [2], 0.78 µg/mL (≈ 1.22 µM).
As for `CCC1OC(=O)CC(O)C(C)C(OC2OC(C)CC(N(C)C)C2O)C(CC=O)CC(C)C(=O)C=CC(C)=CC1CN(CC)C(=O)c1cccnc1` (centres unmarked) [Example 46, 23,4'-dideoxy-23-N-nicotinoylethylaminomycaminosyl tylonolide], the MIC stood at 1.56 µg/mL (≈ 2.19 µM) in the experiment with B. subtilis ATCC 6633; 0.39 µg/mL (≈ 0.546 µM) in the experiment with B. cereus; 1.56 µg/mL (≈ 2.19 µM) in the experiment with Staph. aureus ATCC 6538P (setting [3]); 1.56 µg/mL (≈ 2.19 µM) in the experiment on Staph. aureus KC-11 (setting [4]); 1.56 µg/mL (≈ 2.19 µM) with Staph. aureus 226 (setting [5]); 0.78 µg/mL (≈ 1.09 µM) in experiment [2].
Consider `CCC1OC(=O)CC(O)C(C)C(OC2OC(C)C(O)C(N(C)C)C2O)C(CC=O)CC(C)C(=O)C=CC(C)=CC1CN1CCCCC1C` (centres unmarked) [Example 87, 23-deoxy-23-(2-methylpiperidino)mycaminosyl tylonolide], for which the MIC (with B. subtilis ATCC 6633; in the experiment with Staph. aureus ATCC 6538P (setting [3]); in the experiment with Staph. aureus KC-11 (setting [4]); in the experiment on Staph. aureus 226 (setting [5]); in experiment [1]) was 0.78 µg/mL (≈ 1.15 µM) each time.
With `CCC1OC(=O)CC(O)C(C)C(OC2OC(C)C(O)C(N(C)C)C2O)C(CC=O)CC(C)C(=O)C=CC(C)=CC1CN1CCCCCCC1` (centres unmarked) [Example 90, 23-deoxy-23-heptamethyleneiminomycaminosyl tylonolide], the MIC (in the experiment on B. subtilis ATCC 6633; against Staph. aureus ATCC 6538P; against Staph. aureus KC-11; against Staph. aureus 226 (226); in experiment [1]) was 0.39 µg/mL (≈ 0.563 µM) throughout.
For the molecule `CCC1OC(=O)CC(O)C(C)C(OC2OC(C)C(O)C(N(C)C)C2O)C(CC=O)CC(C)C(=O)C=CC(C)=CC1CN1CCC(C)CC1` (centres unmarked) [Example 89, 23-deoxy-23-(4-methylpiperidino)mycaminosyl tylonolide], the MIC (with B. subtilis ATCC 6633; in the experiment on Staph. aureus ATCC 6538P (setting [3]); in the experiment with Staph. aureus KC-11 (setting [4]); in the experiment on Staph. aureus 226 (setting [5]); in experiment [1]) was 0.78 µg/mL (≈ 1.15 µM) each time.
